Measured values as given in US20060100175A1, “Novel therapeutic use of low molecular weight heparins” (Aventis Pharma S.A., priority 1998, published 2006).

Tested on: motoneurons plated on astrocyte monolayers
Experiment: Potentiation effect on the stimulation of the trophic motoneuron activity (SIN-1 treated astrocyte monolayers)
Assay type: cell-based, rat
Details: SIN-1 2 mM, 1 hour on astrocyte monolayers
Experimental: The cultures enriched in motoneurons are prepared using the centrifugation method described by R. L. Schnaar and A. E. Schaffner, J. Neurosci., 1, 204-217 (1981) and modified by W. Camu and C. E. Henderson, J. Neurosci. Methods, 44, 59-70 (1992). Spinal cords from E15 rat embryos are dissected sterilely and the spinal notochords are removed. They are then cut up and incubated for 15 minutes at 37° C. in PBS (phosphate buffered saline: 137 mM NaCl, 2.68 mM KCl, 6.45 mM Na2HPO4, 1.47 mM KH2PO4) to which 0.05% of trypsin has been added. The dissociation of the cells is completed by trituration with the end of a 1 ml pipette in the culture medium supplemented with bovine serum albumin (BSA) and with DNAase. The cell suspension is spread onto a band of 6.5% weight/volume metrizamide in L15 medium (sold by Gibco BRL) and centrifuged at 500 g for 15 minutes. The band of the interface containing the motoneurons is recovered. […]
The number of motoneurons is evaluated by counting labeled cells in a surface area of 1.44 cm^2 under a microscope giving a 200-fold magnification. The values are expressed as a number of motoneurons per cm^2 or a percentage of the number of motoneurons present in the cultures maintained with trophic factors (BDNF/NT5 […]). […]

[NH-]c1c[n+](N2CCOCC2)no1 [SIN-1] was tested, and the “Number of motoneurons % with respect to the control” value was 125%.
